{"source": "patent US20100120703A1", "about": "“COMPOSITIONS AND METHODS FOR TREATING CANCER” (priority 2007, published 2010)", "key": {"HepG2 cells": {"test_system": "HepG2 cells", "test": "Apoptosis determination by DNA fragmentation assay", "type": "cell-based, human", "from_the_text": "DNA fragmentation or DNA laddering is an indication of apoptosis. During the apoptosis process, the enzymes involved in DNA repair and cell replication are inactivated and nuclear proteins are degraded. After the nuclear structure is fragmented, DNA inside the nucleus is fragmented by the enzyme Caspase Activated DNase. This enzyme is only activated during apoptosis and causes the fragmentation of DNA into nucleosomal units (Hugh J M Brady, 2004). DNA fragmentation is used to identify the apoptosis event.\nHepG2 cells were treated and harvested as described in the foregoing examples. The cell pellet was re-suspended in 400 μl of the lysis buffer by vortexing. Twenty microliters of 10 mg/ml protease K were added into the solution after a complete dissolution. The solution was incubated at 37° C. for 3 hours to completely lyse the cells. After incubation, the solution was allowed to cool to room temperature. One hundred and fifty microliters of a saturated NaCl solution were added into the cell lysate and vortexed. The lysate was centrifuged at 7,000 rpm for 15 minutes. The supernatant was collected in a new microcentrifuge tube. One milliliter of ice cold absolute ethanol was added to the solution to precipitate DNA. After precipitation, the microcentrifuge tube was centrifuged at 14,000 rpm for 20 minutes at 4° C. […]"}, "[1]": {"test_system": "p53, Mdm2, p21, PCNA, Bax and Bcl-2", "test": "Gene expression assay (RT-PCR, Western blot) in rat liver, promotion stage", "type": "in vivo", "description": "Expression patterns, at both mRNA and protein levels, of selected genes related to apoptosis and tumors were examined to investigate the mechanism by which sinigrin prevent tumor occurrence.\nRNA was extracted from 300 μg of rat liver and was measured as described in foregoing examples Three micrograms of total RNA, 1 μl of an oligo dT primer and certain volume of RNase-Free H2O were mixed into a total volume of 12 μl. The mixture was incubated at 70° C. for 10 minutes and immediately chilled on ice. Four microliters of 5× First Stand Buffer, 2 μl of 0.1M DTT, 1 μl of 10 mM dNTP mix, and 1 μl of SuperScript II were added to each tube and mixed. The tubes were incubated at 42° C. for 50 minutes followed by 70° C. for 15 minutes before chilling on ice. The cDNA was then ready for PCR amplification.\nThe PCR reactions were performed in a final volume of 20 μl in a Gene Amp® PCR system. The PCR reaction mix contained 1 μl of cDNA synthesized previously, 2 μl 10×PCR Buffer, 0.4 μl 10 mM dNTP mix, 1.2 μl 25 mM MgCl2, 1 μl 10 mM primer mix, 0.2 μl recombinant Taq polymerase, and 14.2 μl autoclaved ddH2O.\nFor synthesis of β-actin gene as the internal control and Mdm2 gene, the PCR mixture was incubated at 94° C. for 5 minutes followed by 30 cycles of amplification. Each cycle consisted of 45 seconds of denaturation at 94° C., 45 seconds of annealing at 55° C. and 30 seconds of extension at 72° C. After all cycles were completed, a final extension step at 72° C. for 10 minutes was performed. The PCR products were ready for gel electrophoresis.\nFor synthesis of p53, the number of cycle was enhanced to 35, the annealing temperature was enhanced to 58° C., and the extension time was extended to 1.5 minutes, respectively.\nThe intensity of the PCR products was analyzed by the software Image J. The band intensity of the β-actin gene was measured as an internal control. The ratio of the band intensities of the target gene to the β-actin gene was used to compare the mRNA level of each gene between different treatment groups.\nThree hundred micrograms of each liver sample were homogenized in the Solution C at 1 g/ml using a glass homogenizer on ice. The homogenate was transferred to a microcentrifuge tube and centrifuged at 13,000 rpm for 20 minutes. The supernatant was collected and equal volume of 2× sample loading dye was added to each sample. The samples were stored at −20° C. The protein was used for immunodetection of the expression level of Bax, Bcl-2, PCNA and p21.\nThree hundreds micrograms of each liver sample were homogenized in Solution A at 1 g/ml using the glass homogenizer on ice. The homogenate was transferred into a microcentrifuge tube and centrifuged at 3,000 rpm for 5 minutes to spin down the unbroken tissue. The supernatant was collected and incubated on ice for 5 minutes and then centrifuged at 5,000 rpm for 5 minutes. The supernatant was discarded and the pellet was lysed by 100 μl Solution B. The lysing process lasted for 20 minutes on ice. After incubation, the solution was centrifuged at 12,000 rpm for 15 seconds to spin down the cell debris. The supernatant was collected and equal volume of 2× sample loading dye was added to each sample. The samples were ready for immunodetection of the expression level of p53 and mdm2.\nThe Mini-PROTEAN II electrophoresis cell (Bio-Rad) was used for sodium dodecyl sulfate poly acrylamide gel electrophoreses (SDS-PAGE). The gel mold was assembled according to the protocol. About 3 ml water was poured into the set mold to test for leakage. After discarding the water, resolving gel solution was prepared according to the established protocol. A 10% acrylamide gel was used for the separation. The resolving gel was poured into the mold at a proper volume (about ⅔ full). After the gel solution was poured into the mold, a thin layer of distilled water was poured on the gel solution to ensure the surface of the gel was smooth. The gel was allowed to polymerize for 30 minutes. […]"}}, "data": [{"smiles": "C=CC/C(=N/OS(=O)(=O)[O-])S[C@@H]1OC(CO)[C@@H](O)C(O)C1O.[K+]", "note": "(some centres unmarked) [SIN, sinigrin]", "values": [{"measurement": "DNA ladder on agarose gel", "setting": "HepG2 cells; 0.25 mM SIN", "value": "A DNA ladder started to appear"}, {"measurement": "DNA ladder on agarose gel", "setting": "HepG2 cells; 0.5 mM SIN, 96 hours", "value": "a DNA ladder was clearly visible"}, {"measurement": "Mdm2 mRNA expression", "setting": "[1]; RT-PCR", "value": "decreased back to levels near the negative control"}, {"measurement": "p53 mRNA expression", "setting": "[1]; RT-PCR", "value": "decreased back to levels near the negative control"}, {"measurement": "Bax protein expression (decreased in positive group)", "setting": "[1]; Western blot", "value": "reversed"}, {"measurement": "Bcl-2 protein expression (increased in positive group)", "setting": "[1]; Western blot", "value": "reversed"}, {"measurement": "Mdm2 protein expression (increase in positive control)", "setting": "[1]; Western blot", "value": "partially reversed"}, {"measurement": "PCNA protein expression (increased in positive group)", "setting": "[1]; Western blot", "value": "reversed"}, {"measurement": "p21 protein expression", "setting": "[1]; Western blot", "value": "much higher than that of the negative control and the positive control"}, {"measurement": "total p53 protein level", "setting": "[1]; Western blot", "value": "significantly increased"}, {"measurement": "wild type p53 protein level", "setting": "[1]; Western blot", "value": "restored its expression to a level even higher than the negative control"}]}]}
